From patent US20090306133A1, “New Acetyl Coenzyme A Carboxylase (ACC) Inhibitors And Uses In Treatments Of Obesity And Diabetes Mellitus - 087” (ASTRAZENECA AB, priority 2007, published 2009)

Tests used:
Assay type in all cases: biochemical
[1] = biological target: T1, Human recombinant Acetyl-CoA Carboxylase 2 (ACC2) (Homo sapiens, UniProt O00763); assay: Assay X: ACC2 inhibition, inorganic phosphate (malachite green); settings: Assay X: 37° C., 1.5 h, 5 min pre-incubation
Experimental: (§1) Human recombinant Acetyl-CoA Carboxylase 1 and Acetyl-CoA Carboxylase 2 (ACC1 and ACC2) were assayed by determining the amount of inorganic phosphate (Pi) generated. Pre-incubation of 15 μL enzyme together with 0.75 μL DMSO+/−compound for 5 min was done before the reaction was initiated by the addition of 10 μL substrate. […] After 1.5 h the reaction was stopped by addition of 74 μL of water followed by extensive mixing, split and transfer of 2×40 μL to a read-plate encompassing 30 μL distilled H2O per well (n=2→n=4). Colour reaction was initiated by addition of 30 μL malachite green reagent per well and allowed 15 min before absorbance reading of the plates at 660 nm. The malachite green reagent was prepared by mixing 16.4 mL ammonium molybdate solution (7.5%), 1.64 mL Tween (11%) with 82 mL Malachite Green/H2SO4-solution (0.7 g Malachite Green to 1000 mL of 10% (v/v) H2SO4).
(§2) All compounds were tested in triplicate at 10 different concentrations. Control compound (0, 50 and 100% effect) was included on each plate. […] Curve fitting was done using the following equation: y=(A+((B−A)/(1+((x/C)̂D)))) where A and B represents the curve bottom (% inhibition) and the total amplitude (% inhibition), respectively, whereas C and D are the apparent IC50 and curve slope, respectively.

[2] = biological target: T2, Human recombinant Acetyl-CoA Carboxylase 1 (ACC1) (Homo sapiens, UniProt Q13085); assay: Assay X: ACC1 inhibition, inorganic phosphate (malachite green); settings: Assay X: 37° C., 1.5 h, 5 min pre-incubation
Experimental: as §1, §2

[3] = biological target: T2, Human recombinant Acetyl-CoA Carboxylase 1 (ACC1); assay: Assay Y: ACC1 inhibition, inorganic phosphate (Malachite Green); settings: Assay Y: room temperature, 3 hr, 15 min preincubation
How it was run: (§3)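 Enzyme preincubated with compound 15 min before substrate addition; reaction run 3 h, then phosphate detected with Malachite Green at 670 nm after 10 min at room temperature. Triplicate 10-point titrations; IC50 by non-linear four-parameter curve fitting.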

[4] = biological target: T1, Human recombinant Acetyl-CoA Carboxylase 2 (ACC2); assay: Assay Y: ACC2 inhibition, inorganic phosphate (Malachite Green); settings: Assay Y: room temperature, 3 hr, 15 min preincubation
How it was run: as §3

T1 sequence (O00763 whole entry): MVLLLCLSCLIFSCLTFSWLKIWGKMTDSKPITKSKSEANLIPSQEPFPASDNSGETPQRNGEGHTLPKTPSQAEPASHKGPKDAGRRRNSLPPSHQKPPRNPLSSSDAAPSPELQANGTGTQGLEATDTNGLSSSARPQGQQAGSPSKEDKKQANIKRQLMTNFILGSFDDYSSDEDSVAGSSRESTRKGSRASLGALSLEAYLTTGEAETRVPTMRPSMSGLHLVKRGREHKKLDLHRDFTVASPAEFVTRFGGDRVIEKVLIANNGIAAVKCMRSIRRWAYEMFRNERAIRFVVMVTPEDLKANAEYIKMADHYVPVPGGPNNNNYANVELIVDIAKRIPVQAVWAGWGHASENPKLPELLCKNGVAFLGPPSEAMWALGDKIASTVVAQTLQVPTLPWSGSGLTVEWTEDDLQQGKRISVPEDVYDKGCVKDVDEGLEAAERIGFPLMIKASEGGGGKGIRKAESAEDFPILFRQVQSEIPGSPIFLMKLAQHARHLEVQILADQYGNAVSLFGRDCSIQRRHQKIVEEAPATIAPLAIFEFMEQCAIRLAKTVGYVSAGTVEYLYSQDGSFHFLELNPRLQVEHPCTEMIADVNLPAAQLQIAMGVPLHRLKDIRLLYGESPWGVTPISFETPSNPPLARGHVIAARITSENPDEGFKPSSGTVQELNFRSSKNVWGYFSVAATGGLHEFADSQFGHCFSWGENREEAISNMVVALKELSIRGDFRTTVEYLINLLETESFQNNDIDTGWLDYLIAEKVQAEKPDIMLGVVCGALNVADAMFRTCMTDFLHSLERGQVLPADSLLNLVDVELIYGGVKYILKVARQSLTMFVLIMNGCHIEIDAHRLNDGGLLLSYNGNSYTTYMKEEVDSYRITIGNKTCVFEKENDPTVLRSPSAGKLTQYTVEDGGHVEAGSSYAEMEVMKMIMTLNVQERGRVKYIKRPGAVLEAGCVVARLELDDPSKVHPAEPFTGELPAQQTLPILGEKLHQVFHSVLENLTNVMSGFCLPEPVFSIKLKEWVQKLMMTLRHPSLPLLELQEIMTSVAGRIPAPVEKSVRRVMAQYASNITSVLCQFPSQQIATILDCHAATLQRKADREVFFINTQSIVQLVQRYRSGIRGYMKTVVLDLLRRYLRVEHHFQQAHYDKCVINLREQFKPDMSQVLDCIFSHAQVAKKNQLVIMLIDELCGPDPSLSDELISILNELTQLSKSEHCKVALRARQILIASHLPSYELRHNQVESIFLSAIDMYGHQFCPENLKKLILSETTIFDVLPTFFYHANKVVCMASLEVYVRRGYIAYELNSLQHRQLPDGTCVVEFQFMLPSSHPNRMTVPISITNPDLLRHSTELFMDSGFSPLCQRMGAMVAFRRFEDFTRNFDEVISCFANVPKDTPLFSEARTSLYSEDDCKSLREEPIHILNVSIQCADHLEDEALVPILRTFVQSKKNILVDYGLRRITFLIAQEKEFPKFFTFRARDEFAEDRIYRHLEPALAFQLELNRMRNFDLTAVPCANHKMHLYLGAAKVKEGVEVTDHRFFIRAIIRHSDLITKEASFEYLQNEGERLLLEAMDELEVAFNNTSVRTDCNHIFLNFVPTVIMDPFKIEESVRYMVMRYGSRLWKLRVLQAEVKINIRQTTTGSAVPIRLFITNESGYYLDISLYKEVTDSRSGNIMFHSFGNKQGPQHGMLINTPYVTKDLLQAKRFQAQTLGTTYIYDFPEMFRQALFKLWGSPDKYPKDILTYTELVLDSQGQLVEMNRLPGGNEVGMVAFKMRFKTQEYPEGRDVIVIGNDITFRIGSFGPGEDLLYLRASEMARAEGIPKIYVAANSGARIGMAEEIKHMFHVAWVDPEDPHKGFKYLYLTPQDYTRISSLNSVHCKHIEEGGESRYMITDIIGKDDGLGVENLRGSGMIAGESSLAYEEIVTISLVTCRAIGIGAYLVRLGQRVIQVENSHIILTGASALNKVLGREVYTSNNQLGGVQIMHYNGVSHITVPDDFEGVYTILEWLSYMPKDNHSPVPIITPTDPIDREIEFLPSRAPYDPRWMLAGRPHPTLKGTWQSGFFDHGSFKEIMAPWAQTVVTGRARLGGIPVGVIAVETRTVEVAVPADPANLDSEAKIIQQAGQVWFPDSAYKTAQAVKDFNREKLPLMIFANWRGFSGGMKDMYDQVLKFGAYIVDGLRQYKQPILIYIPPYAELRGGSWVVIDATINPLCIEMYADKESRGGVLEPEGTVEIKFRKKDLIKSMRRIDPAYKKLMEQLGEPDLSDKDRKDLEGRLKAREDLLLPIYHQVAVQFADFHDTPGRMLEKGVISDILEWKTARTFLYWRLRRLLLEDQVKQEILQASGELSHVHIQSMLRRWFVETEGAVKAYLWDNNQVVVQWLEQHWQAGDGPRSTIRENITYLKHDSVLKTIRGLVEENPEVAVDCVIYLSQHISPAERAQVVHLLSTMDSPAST

Row | Compound | IC50 [1] | IC50 [2] | IC50 [3] | IC50 [4]
1 | CC(C)(C)OC(=O)NC[C@H]1CC[C@H](CNC(=O)c2cc(-c3ccc(N4CCCC(O)C4)nc3)nc3ccccc23)CC1 (relative stereo) [Example 157, tert-Butyl[(trans-4-{[({2-[6-(3-hydroxypiperidin-1-yl)pyridin-3-yl]-quinolin-4-yl}carbonyl)amino]methyl}cyclohexyl)methyl]carbamate] | 180 nM | 410 nM |  | 
2 | CC(CNc1ccc(-c2cc(C(=O)NC[C@H]3CC[C@H](CNC(=O)OC(C)(C)C)CC3)c3ccccc3n2)cn1)C(=O)O (relative stereo) [Example 158, 3-{[5-(4-{[(trans-4-{[(tert-Butoxycarbonyl)amino]methyl}cyclohexyl)methyl]-carbamoyl}quinolin-2-yl)pyridin-2-yl]amino}-2-methyl-propanoic acid] | 1240 nM | 3870 nM |  | 
3 | CC(C)(C)OC(=O)NC[C@H]1CC[C@H](CNC(=O)c2cc(-c3ccc(NCC(O)CO)nc3)nc3ccccc23)CC1 (relative stereo) [Example 162, tert-Butyl{[trans-4-({[(2-{6-[(2,3-dihydroxypropyl)amino]pyridin-3-yl}quinolin-4-yl)carbonyl]amino}-methyl)cyclohexyl]-methyl}carbamate] | 370 nM | 880 nM |  | 
4 | CC(C)(C)OC(=O)NC[C@H]1CC[C@H](CNC(=O)c2cc(-c3ccc(N4CCOC(CO)C4)nc3)nc3ccccc23)CC1 (relative stereo) [Example 171, tert-Butyl{[trans-4-({[(2-{6-[2-(hydroxymethyl)morpholin-4-yl]-pyridin-3-yl}quinolin-4-yl)carbonyl]amino}-methyl)cyclohexyl]-methyl}carbamate] | 140 nM | 290 nM |  | 
5 | CC(O)C(C)Oc1ccc(-c2cc(C(=O)NC[C@H]3CC[C@H](CNC(=O)OC(C)(C)C)CC3)c3ccccc3n2)cn1 (relative stereo) [Example 176, tert-Butyl[(trans-4-{[({2-[6-(2-hydroxy-1-methylpropoxy)-pyridin-3-yl]-quinolin-4-yl}-carbonyl)amino]-methyl}cyclohexyl)methyl]carbamate] | 1050 nM | 3040 nM |  | 
6 | CC(C)(C)OC(=O)NC[C@H]1CC[C@H](CNC(=O)c2cc(N3CCC(CC(O)CN4CCCC4)CC3)nc3ccccc23)CC1 (relative stereo) [Example 206, tert-butyl [(trans-4-{[({2-[4-(2-hydroxy-3-pyrrolidin-1-ylpropyl)piperidin-1-yl]quinolin-4-yl}carbonyl)amino]methyl}cyclohexyl)methyl]carbamate] | 130 nM | 973 nM |  | 
7 | CN(C)CCNc1ccc(-c2cc(C(=O)NC[C@H]3CC[C@H](CNC(=O)OC(C)(C)C)CC3)c3ccccc3n2)cn1 [Example 146, tert-Butyl({trans-4-[({[2-(6-{[2-(dimethylamino)ethyl]-amino}pyridin-3-yl)quinolin-4-yl]carbonyl}amino)-methyl]cyclohexyl}-methyl)carbamate] |  |  | 180 nM | 30 nM
8 | CC(C)(C)OC(=O)NC[C@H]1CC[C@H](CNC(=O)c2cc(-c3ccc(N4CC[C@@H](O)C4)nc3)nc3ccccc23)CC1 [Example 147, tert-Butyl{[trans-4-({[(2-{6-[(3R)-3-hydroxypyrrolidin-1-yl]pyridin-3-yl}quinolin-4-yl)carbonyl]amino}-methyl)cyclohexyl]-methyl}carbamate] |  |  | 2590 nM | 30 nM
9 | C[C@@H](CO)Nc1ccc(-c2cc(C(=O)NC[C@H]3CC[C@H](CNC(=O)OC(C)(C)C)CC3)c3ccccc3n2)cn1 [Example 148, tert-Butyl({trans-4-[({[2-(6-{[(1S)-2-hydroxy-1-methylethyl]amino}-pyridin-3-yl)quinolin-4-yl]carbonyl}amino)-methyl]cyclohexyl}-methyl)carbamate] |  |  | 460 nM | 70 nM
10 | C[C@H](CO)Nc1ccc(-c2cc(C(=O)NC[C@H]3CC[C@H](CNC(=O)OC(C)(C)C)CC3)c3ccccc3n2)cn1 [Example 149, tert-Butyl({trans-4-[({[2-(6-{[(1R)-2-hydroxy-1-methylethyl]amino}-pyridin-3-yl)quinolin-4-yl]carbonyl}amino)-methyl]cyclohexyl}-methyl)carbamate] |  |  | 390 nM | 50 nM
11 | CC(C)(C)OC(=O)NC[C@H]1CC[C@H](CNC(=O)c2cc(-c3ccc(OCC4CCOC4)nc3)nc3ccccc23)CC1 (stereo partly drawn) [Example 173, tert-Butyl [(trans-4-{[({2-[6-(tetrahydrofuran-3-ylmethoxy)pyridin-3-yl]quinolin-4-yl}carbonyl)amino]methyl}cyclohexyl)methyl]carbamate] | 410 nM |  |  | 
12 | CN1CCN(CCCOc2cc(C(=O)NC[C@H]3CC[C@H](CNC(=O)OC(C)(C)C)CC3)c3ccccc3n2)CC1 [Example 180, tert-Butyl [(trans-4-{[({2-[3-(4-methylpiperazin-1-yl)propoxy]quinolin-4-yl}carbonyl)amino]methyl}cyclohexyl)methyl]carbamate] |  |  | 6910 nM | 1060 nM
13 | CN(C)CCCOc1cc(C(=O)NC[C@H]2CC[C@H](CNC(=O)OC(C)(C)C)CC2)c2ccccc2n1 [Example 181, tert-Butyl[(trans-4-{[({2-[3-(dimethylamino)-propoxy]quinolin-4-yl}carbonyl)amino]-methyl}cyclohexyl)-methyl]carbamate] |  |  | 12300 nM | 1340 nM
14 | CN1CCN(CCOc2cc(C(=O)NC[C@H]3CC[C@H](CNC(=O)OC(C)(C)C)CC3)c3ccccc3n2)CC1 [Example 182, tert-Butyl[(trans-4-{[({2-[2-(4-methylpiperazin-1-yl)ethoxy]quinolin-4-yl}carbonyl)amino]methyl}cyclohexyl)methyl]carbamate] |  |  | 6430 nM | 1760 nM
15 | CC(=O)N1CCN(CCCOc2cc(C(=O)NC[C@H]3CC[C@H](CNC(=O)OC(C)(C)C)CC3)c3ccccc3n2)CC1 [Example 183, tert-Butyl[(trans-4-{[({2-[3-(4-acetylpiperazin-1-yl)propoxy]quinolin-4-yl}carbonyl)amino]-methyl}cyclohexyl)-methyl]carbamate] |  |  | > 20000 nM | 1260 nM
16 | CN(C)CCOc1ccc(-c2cc(C(=O)NC[C@H]3CC[C@H](CNC(=O)OC(C)(C)C)CC3)c3ccccc3n2)cn1 [Example 184, tert-Butyl{[trans-4-({[(2-{6-[2-(dimethylamino)ethoxy]pyridin-3-yl}quinolin-4-yl)carbonyl]amino}-methyl)cyclohexyl]-methyl}carbamate] |  |  | 210 nM | 40 nM
17 | CC(C)(C)OC(=O)NC[C@H]1CC[C@H](CNC(=O)c2cc(N3CCN(CCO)CC3)nc3ccccc23)CC1 [Example 185, tert-Butyl [(trans-4-{[({2-[4-(2-hydroxyethyl)piperazin-1-yl]quinolin-4-yl}carbonyl)amino]methyl}cyclohexyl)methyl]carbamate] |  |  | > 20000 nM | 1120 nM
18 | CN(C)CCN1CCN(c2cc(C(=O)NC[C@H]3CC[C@H](CNC(=O)OC(C)(C)C)CC3)c3ccccc3n2)CC1 [Example 186, tert-Butyl{[trans-4-({[(2-{4-[2-(dimethylamino)ethyl]-piperazin-1-yl}quinolin-4-yl)carbonyl]amino}-methyl)cyclohexyl]-methyl}carbamate] |  |  | 2220 nM | 140 nM
19 | CC(C)(C)OC(=O)NC[C@H]1CC[C@H](CNC(=O)c2cc(N3CCC(O)CC3)nc3ccccc23)CC1 [Example 187, tert-Butyl({trans-4-[({[2-(4-hydroxypiperidin-1-yl)quinolin-4-yl]carbonyl}amino)-methyl]cyclohexyl}-methyl)carbamate] |  |  | 8480 nM | 560 nM
20 | CC(C)(C)OC(=O)NC[C@H]1CC[C@H](CNC(=O)c2cc(N3CCC(CO)CC3)nc3ccccc23)CC1 [Example 188, tert-Butyl[(trans-4-{[({2-[4-(hydroxymethyl)-piperidin-1-yl]quinolin-4-yl}carbonyl)amino]-methyl}cyclohexyl)-methyl]carbamate] |  |  | 5640 nM | 270 nM
21 | CC(C)(C)OC(=O)NC[C@H]1CC[C@H](CNC(=O)c2cc(N3CCC(CCO)CC3)nc3ccccc23)CC1 [Example 189, tert-butyl [(trans-4-{[({2-[4-(2-hydroxyethyl)piperidin-1-yl]quinolin-4-yl}carbonyl)amino]methyl}cyclohexyl)methyl]carbamate] |  |  | 1960 nM | 70 nM
22 | CN1CCN(c2ccc(-c3cc(C(=O)N[C@H]4CC[C@H](CNC(=O)OC(C)(C)C)CC4)c4ccccc4n3)cn2)CC1 [Example 204, tert-Butyl ({trans-4-[({2-[6-(4-methylpiperazin-1-yl)pyridin-3-yl]quinolin-4-yl}carbonyl)amino]cyclohexyl}methyl)carbamate] |  |  | 3800 nM | 380 nM
